Results reported in patent US20060058250A1, “Methods of treating proliferative skin diseases using carbazole derivatives” (Cephalon, Inc., priority 2004, published 2006).

Assays:
[1] = test system: keratinocytes; conditions: cited from earlier work
[2] = test system: SCID-mouse-human skin model of psoriasis; conditions: cited from earlier work
[3] = test system: psoriasis; assay: Case report: patient with severe psoriasis treated with oral lestaurtinib; format: in vivo, human; conditions: person, severe psoriasis in the ankle region; oral solution 60 mg bid, 80 mg bid after 29 days; observed on day 60
Experimental: A patient with a history of renal and prostate cancer, arthritic pain and chronic bronchitis presented with severe psoriasis in the ankle region. The patient started treatment with lestaurtinib at a dosage of 60 mg bid. Lestaurtinib was administered twice daily as an oral solution at a concentration of 25 mg/mL in polysorbate 80 NF (10 mL) and propylene glycol USP (10 mL), diluted in juice. The following juices are approved for use to administer lestaurtinib: grape, pineapple, apple, V8® 100% vegetable juice, and orange juice (pulp free). After 29 days from initiation, the dosage was increased to 80 mg bid.

## COC(=O)[C@@]1(O)C[C@H]2O[C@]1(C)n1c3ccccc3c3c4c(c5c6ccccc6n2c5c31)C(=O)NC4 [Compound K-252a, K-252a]
[1]
  block of autocrine NGF loop and keratinocyte apoptosis: can block an autocrine NGF loop and result in keratinocyte apoptosis
[2]
  improvement in the skin condition: noticeable improvement in the skin condition

## C[C@]12O[C@H](C[C@]1(O)CO)n1c3ccccc3c3c4c(c5c6ccccc6n2c5c31)CNC4=O [lestaurtinib]
[3]
  remission of psoriasis: relative remission of psoriasis
